Reference: the supplement of paper PMC10307832

Tests used:
Test in all cases: relative viability (nuclei count vs DMSO), 5 days (fraction); higher = more cells survive
HOP-62 = tested on: HOP-62
Procedure, shortened: (§1)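 Lung cancer cell lines, seeded in 1536-well plates, were treated the following day by pin tool with a single drug or with five library-drug doses (not always all listed) in √10 steps on top of a fixed anchor-drug dose. Cells were fixed and nuclei stained in one step after 5 days, and nuclei were counted. Relative viability is the nuclei count for treated wells divided by that for vehicle wells, reported as medians of duplicate plates.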

SW 1573 = tested on: SW 1573
Procedure, shortened: as §1

NCI-H1755 = tested on: NCI-H1755
Procedure, shortened: as §1

NCI-H460 = tested on: NCI-H460
Procedure, shortened: as §1

NCI-H2228 = tested on: NCI-H2228
Procedure, shortened: as §1

A-427 = tested on: A-427
Procedure, shortened: as §1

LXF-289 = tested on: LXF-289
Procedure, shortened: as §1

HCC-15 = tested on: HCC-15
Procedure, shortened: as §1

NCI-H647 = tested on: NCI-H647
Procedure, shortened: as §1

RERF-LC-KJ = tested on: RERF-LC-KJ
Procedure, shortened: as §1

PC-3 [JPC-3] = tested on: PC-3 [JPC-3]
Procedure, shortened: as §1

In the case of `NC(=O)Nc1cc(-c2cccc(F)c2)sc1C(=O)N[C@H]1CCCNC1` [AZD7762] + CC1(C)CCC(c2ccc(Cl)cc2)=C(CN2CCN(c3ccc(C(=O)NS(=O)(=O)c4ccc(N[C@H](CCN5CCOCC5)CSc5ccccc5)c(S(=O)(=O)C(F)(F)F)c4)cc3)CC2)C1 [Navitoclax] (partner 0.5 µM), the relative viability (HOP-62; first compound 0.01 µM) is reported as 1.2, the relative viability (HOP-62; first compound 0.03162 µM) is reported as 1.03 and the relative viability (HOP-62; first compound 0.1 µM) is reported as 1.19. The relative viability (HOP-62; first compound 0.3162 µM) was 1.16, the relative viability (HOP-62; first compound 1 µM) was 0.969 and the relative viability (SW 1573; first compound 0.01 µM) was 1.19. It also gave a relative viability (SW 1573; first compound 0.03162 µM) of 1.12, a relative viability (SW 1573; first compound 0.1 µM) of 1.21 and a relative viability (SW 1573; first compound 0.3162 µM) of 0.764. For the same compound, the relative viability (SW 1573; first compound 1 µM) was 0.887, the relative viability (NCI-H1755; first compound 0.01 µM) was 1.03 and the relative viability (NCI-H1755; first compound 0.03162 µM) was 1.01. For the same compound, the relative viability (NCI-H1755; first compound 0.1 µM) was 1.08, the relative viability (NCI-H1755; first compound 0.3162 µM) was 1.08 and the relative viability (NCI-H1755; first compound 1 µM) was 0.622. It also gave a relative viability (NCI-H460; first compound 0.01 µM) of 1.25, a relative viability (NCI-H460; first compound 0.03162 µM) of 1.15 and a relative viability (NCI-H460; first compound 0.1 µM) of 1.11. For the same compound, the relative viability (NCI-H460; first compound 0.3162 µM) was 0.861, the relative viability (NCI-H460; first compound 1 µM) was 0.0845 and the relative viability (NCI-H2228; first compound 0.01 µM) was 1. It also gave a relative viability (NCI-H2228; first compound 0.03162 µM) of 0.552, a relative viability (NCI-H2228; first compound 0.1 µM) of 1 and a relative viability (NCI-H2228; first compound 0.3162 µM) of 0.666. For the same compound, the relative viability (NCI-H2228; first compound 1 µM) was 0.354, the relative viability (A-427; first compound 0.01 µM) was 0.951 and the relative viability (A-427; first compound 0.03162 µM) was 0.948. For the same compound, the relative viability (A-427; first compound 0.1 µM) was 1.08, the relative viability (A-427; first compound 0.3162 µM) was 1.04 and the relative viability (A-427; first compound 1 µM) was 0.36. The relative viability (LXF-289; first compound 0.01 µM) was 0.943, the relative viability (LXF-289; first compound 0.03162 µM) was 0.962 and the relative viability (LXF-289; first compound 0.1 µM) was 0.949. It also gave a relative viability (LXF-289; first compound 0.3162 µM) of 1, a relative viability (LXF-289; first compound 1 µM) of 1.03 and a relative viability (HCC-15; first compound 0.01 µM) of 0.663. The relative viability (HCC-15; first compound 0.03162 µM) was 0.708, the relative viability (HCC-15; first compound 0.1 µM) was 0.771 and the relative viability (HCC-15; first compound 0.3162 µM) was 0.728. It also gave a relative viability (HCC-15; first compound 1 µM) of 0.789, a relative viability (NCI-H647; first compound 0.01 µM) of 1.33 and a relative viability (NCI-H647; first compound 0.03162 µM) of 1.08. It also gave a relative viability (NCI-H647; first compound 0.1 µM) of 0.969, a relative viability (NCI-H647; first compound 0.3162 µM) of 0.858 and a relative viability (NCI-H647; first compound 1 µM) of 0.277. The relative viability (RERF-LC-KJ; first compound 0.01 µM) was 1.15, the relative viability (RERF-LC-KJ; first compound 0.03162 µM) was 0.913 and the relative viability (RERF-LC-KJ; first compound 0.1 µM) was 1.12. For the same compound, the relative viability (RERF-LC-KJ; first compound 0.3162 µM) was 1.21, the relative viability (RERF-LC-KJ; first compound 1 µM) was 0.878 and the relative viability (PC-3 [JPC-3]; first compound 0.01 µM) was 0.776. For the same compound, the relative viability (PC-3 [JPC-3]; first compound 0.03162 µM) was 0.824.
